Where “and” joins values, the source holds several entries; their conditions need not be identical. Equal values may be shown once. Read-outs that look alike come from different tables or passages of the source.
Assays:
[1] = test system: L. donovani (MHOM-ET-67/L82, axenically grown amastigotes); assay: in vitro activity on L. donovani, serial dilution assay; format: cell-based, Leishmania donovani; conditions: for IC50: Leishmania donovani; for Selectivity index (SI) L. donovani: SI = IC50 cytotoxicity (L6)/IC50 in L. donovani
Procedure: (§1) The in vitro activity was assessed on T. b. rhodesiense (STIB900, trypomastigotes), T. cruzi (Tulahuen C2C4, intracellular amastigotes), L. donovani (MHOM-ET-67/L82, axenically grown amastigotes), P. falciparum (NF54, intraerythrocytic), and L6 cells (ATCC, CRL-1458™, rat skeletal myoblasts) as previously described ([Bernal et al., 2020]). The activities were determined in serial dilution assays with 72 h compound exposure, respectively 96 h for intracellular T. cruzi. Results are expressed in µg/mL for extracts and in µM for pure compounds. The IC50 values were determined for the compounds only when they were <50 µM.

[2] = test system: P. falciparum (NF54, intraerythrocytic); assay: in vitro activity on P. falciparum, serial dilution assay; format: cell-based, Plasmodium falciparum; conditions: for IC50: Plasmodium falciparum, read-out: IC50 P. falciparum; for Selectivity index (SI) P. falciparum: SI = IC50 cytotoxicity (L6)/IC50 in P. falciparum
Procedure: as §1

cytotoxicity in L6 cells = format: cell-based, rat
Procedure: as §1

[3] = test system: T. b. rhodesiense (STIB900, trypomastigotes); assay: in vitro activity on T. b. rhodesiense, serial dilution assay; format: cell-based, Trypanosoma brucei rhodesiense; conditions: for IC50: Trypanosoma brucei; for Selectivity index (SI) T. b. rhodesiense: SI = IC50 cytotoxicity (L6)/IC50 in T. b. rhodesiense
Procedure: as §1

[4] = test system: T. cruzi (Tulahuen C2C4, intracellular amastigotes); assay: in vitro activity on T. cruzi, serial dilution assay; format: cell-based, Trypanosoma cruzi; conditions: for IC50: Trypanosoma cruzi, TULAHUEN; for Selectivity index (SI) T. cruzi: SI = IC50 cytotoxicity (L6)/IC50 in T. cruzi
Procedure: as §1

[5] = 72 h, read-out: IC50 L. donovani
[6] = rat skeletal myoblast (L6 cells), 72 h exposure, means of two independent assays ± deviation from the mean, read-out: IC50 Cytotoxicity
[7] = 72 h exposure, means of two independent assays ± deviation from the mean, read-out: IC50 T. b. rhodesiense
[8] = 72 h, axenic amastigotes, 72 h exposure, means of two independent assays ± deviation from the mean, read-out: IC50 L. donovani
[9] = NF54, 72 h, 72 h exposure, means of two independent assays ± deviation from the mean
[10] = 72 h, 72 h exposure, means of two independent assays ± deviation from the mean, read-out: IC50 T. b. rhodesiense
[11] = 96 h, 96 h exposure, means of two independent assays ± deviation from the mean, read-out: IC50 T. cruzi
[12] = rat, L6 cells (rat skeletal myoblasts, ATCC CRL-1458), rat skeletal myoblast (L6 cells), 72 h exposure, means of two independent assays ± deviation from the mean, read-out: IC50 Cytotoxicity
[13] = inactive, read-out: IC50 L. donovani (inactive)
[14] = inactive, read-out: IC50 T. b. rhodesiense (inactive)
[15] = inactive, read-out: IC50 T. cruzi (inactive)

C=C(C)[C@@H]1CC[C@]2(C(=O)O)CC[C@]3(C(=O)O)[C@H](CC[C@@H]4[C@@]5(C)C=CC(C)(C)[C@@H]5CC[C@]43C)[C@@H]12 [Compound 17, ceanothenic acid]
IC50 [1, 5]: 2.6 ± 0.2 µM | Selectivity index (SI) L. donovani [1]: > 40 | IC50 ([2]; NF54, 72 h): 13.9 ± 4 µM | Selectivity index (SI) P. falciparum [2]: > 8.0 | IC50 at 72 h (cytotoxicity in L6 cells; [6]): > 50 µM | IC50 [3, 7]: > 50 µM | IC50 ([4]; 96 h, read-out: IC50 T. cruzi): > 50 µM

C=C(C)[C@@H]1CC[C@]2(C(=O)O)CC[C@]3(C)[C@H](CC[C@@H]4[C@@]5(C)C[C@@H](O)[C@H](OC(=O)/C=C/c6ccc(O)cc6)C(C)(C)[C@@H]5CC[C@]43C)[C@@H]12 [Compound 18, 3-O-trans-p-coumaroylalphitolic acid]
IC50 [1, 8]: 3 ± 0.2 µM | Selectivity index (SI) L. donovani [1]: 5.3 | IC50 [2, 9]: 0.2 ± 0.04 µM | Selectivity index (SI) P. falciparum [2]: 79.0 | IC50 at 72 h (cytotoxicity in L6 cells; rat, IC50 Cytotoxicity): 15.8 ± 6.4 µM | Selectivity index (SI) T. b. rhodesiense [3]: 0.6 | IC50 [3, 10]: 25.9 ± 2.6 µM | Selectivity index (SI) T. cruzi [4]: 0.8 | IC50 [4, 11]: 19.5 ± 0.6 µM

CC(C)=CCC1=C(Cl)C(=O)c2c(O)ccc(O)c2C1=O [Compound 21]
IC50 [1, 8]: 3 ± 0.4 µM | Selectivity index (SI) L. donovani [1]: 2.6 | IC50 [2, 9]: 9.2 ± 2.1 µM | Selectivity index (SI) P. falciparum [2]: 0.9 | IC50 at 72 h (cytotoxicity in L6 cells; [12]): 7.9 ± 1.3 µM | Selectivity index (SI) T. b. rhodesiense [3]: 15.8 | IC50 [3, 10]: 0.5 ± 0.3 µM | Selectivity index (SI) T. cruzi [4]: 0.4 | IC50 [4, 11]: 21.5 ± 0.2 µM

C=C(C)[C@H](O)CC1=C(O)C(=O)c2c(O)ccc(O)c2C1=O [Compound 22]
IC50 [1, 8]: 7.9 ± 0.9 µM | Selectivity index (SI) L. donovani [1]: 3.8 | IC50 [2, 9]: > 50 µM | IC50 at 72 h (cytotoxicity in L6 cells; [12]): 30.4 ± 10.6 µM | Selectivity index (SI) T. b. rhodesiense [3]: 0.8 | IC50 [3, 10]: 36 ± 9.4 µM | IC50 [4, 11]: > 50 µM

COC1=CC(=O)C=C(OC)C1=O [Compound 23]
IC50 [1, 5]: 15.1 ± 1 µM | IC50 ([2]; NF54, 72 h): 36.9 ± 15.4 µM | IC50 at 72 h (cytotoxicity in L6 cells; [6]): > 50 µM | IC50 [3, 7]: 9.3 ± 3.1 µM | IC50 ([4]; 96 h, read-out: IC50 T. cruzi): > 50 µM

CC(C)=CC[C@@]12O[C@@H]1C(O)c1c(O)ccc(O)c1C2=O (stereo partly drawn) [Compound 25]
IC50 [1, 8]: 12.7 ± 5.3 µM | Selectivity index (SI) L. donovani [1]: 1.5 | IC50 [2, 9]: 14 ± 1.9 µM | Selectivity index (SI) P. falciparum [2]: 1.4 | IC50 at 72 h (cytotoxicity in L6 cells; [12]): 19 ± 2.3 µM | Selectivity index (SI) T. b. rhodesiense [3]: 7.6 | IC50 [3, 10]: 2.5 ± 0.1 µM | IC50 [4, 11]: > 50 µM

CC(C)=CC[C@@]12O[C@@H]1C(=O)c1c(O)ccc(O[C@@H]3O[C@H](CO)[C@@H](O)[C@H](O)[C@H]3O)c1C2=O [Compound 26]
IC50 [1, 8]: 3.5 ± 0.5 µM | Selectivity index (SI) L. donovani [1]: 3.5 | IC50 [2, 9]: 9 ± 5.4 µM | Selectivity index (SI) P. falciparum [2]: 1.4 | IC50 at 72 h (cytotoxicity in L6 cells; [12]): 12.2 ± 1.8 µM | Selectivity index (SI) T. b. rhodesiense [3]: 1.2 | IC50 [3, 10]: 9.9 ± 4.5 µM | Selectivity index (SI) T. cruzi [4]: 0.3 | IC50 [4, 11]: 39.2 ± 5 µM

CC(C)=CCCc1ccc2c(c1)C(=O)c1ccccc1C2=O [Compound 27]
IC50 [1, 13]: > 50 µM | IC50 ([2]; NF54, abstract and b45 text): > 50 µM | IC50 [3, 14]: > 50 µM | IC50 [4, 15]: > 50 µM

CC(C)=CCCc1ccc2c(c1O)C(=O)c1ccccc1C2=O [Compound 28]
IC50 [1, 13]: > 50 µM | IC50 ([2]; NF54, abstract and b45 text): > 50 µM | IC50 [3, 14]: > 50 µM | IC50 [4, 15]: > 50 µM

COc1cc([C@@H]2OC[C@@H]3[C@H]2CO[C@H]3c2cc(OC)c(O)c(OC)c2)cc(OC)c1O [Compound 30]
IC50 [1, 8]: 13.4 ± 2.3 µM | Selectivity index (SI) L. donovani [1]: 1.0 | IC50 [2, 9]: 22.6 ± 2 µM | Selectivity index (SI) P. falciparum [2]: 0.6 | IC50 at 72 h (cytotoxicity in L6 cells; rat, IC50 Cytotoxicity): 13 ± 1.7 µM | Selectivity index (SI) T. b. rhodesiense [3]: 0.6 | IC50 [3, 10]: 20.2 ± 1.8 µM | Selectivity index (SI) T. cruzi [4]: 0.4 | IC50 [4, 11]: 29.2 ± 11.4 µM

Nc1nc(N)nc(Nc2ccc([As]3SCC(CO)S3)cc2)n1 (stereo not drawn) [Melarsoprol, reference compound]
IC50 ([3]; 72 h, read-out: IC50 T. b. rhodesiense): 0.005 µg/mL and 16 nM

CCCCCCCCCCCCCCCCOP(=O)([O-])OCC[N+](C)(C)C [Miltefosine, reference compound]
IC50 ([1]; 72 h, Table 2, 72 h exposure, means of two (C. sieberiana three) independent experiments, read-out: IC50 L. donovani): 0.282 µg/mL | IC50 [1, 8]: 0.52 ± 0.07 µM

COc1cc([C@@H]2c3cc4c(cc3[C@H](O)[C@H]3COC(=O)[C@H]23)OCO4)cc(OC)c1OC [Podophyllotoxin, reference compound]
IC50 at 72 h (cytotoxicity in L6 cells; Table 2, rat skeletal myoblast (L6 cells), 72 h exposure, read-out: IC50 Cytotoxicity): 0.008 µg/mL
